# Test results taken from patent US20240423983A1, “ENHANCEMENT OF CD47 BLOCKADE THERAPY WITH DHFR INHIBITORS” (PF Argentum IP Holdings LLC, priority 2021, published 2024).
# Where two headings read alike, the source gives them in different places.
# Legend:
# NCI-H460 NSCLC xenograft = conditions: cited from earlier work
# [1] = tested on: human non-small cell lung cancer (NSCLC) xenograft; conditions: 2 mg/kg pralatrexate-treated group; cited from earlier work
# [2] = tested on: human T cell lymphoma cell line HH; assay: macrophage phagocytosis assay on human lymphoma cell line HH; type: cell-based; conditions: HH cells (CD47-sensitive), 2 h co-culture with macrophages; FIG. 1; vs single agents or no-treatment control
# Method: (§1) A macrophage phagocytosis assay was conducted in order to assess the effects of the combination of a DHFRi and CD47 blocking agent as compared to the agents individually on macrophage phagocytosis of human lymphoma cells.
# (§2) For the assay, the DHFRi was pralatrexate, and the CD47 blocking agent was an Fc fusion protein comprising soluble SIRPα (TTI-621). The lymphoma cells were human T cell lymphoma cell lines HH (ATCC Ref. CRL-2105) (a mature T cell line from peripheral blood of a patient with aggressive cutaneous T cell leukemia/lymphoma) or H9 (ATCC Ref. HTB-176) (a cutaneous T cell lymphoma). Thus, there were 4 experimental conditions for each lymphoma cell type: A) no treatment; B) pralatrexate only; C) TTI-621 (SIRPα-IgG1 Fc) only; and D) combination of pralatrexate and TTI-621.
# (§3) PBMC from normal donors were purchased from BioIVT and informed consent was obtained from all donors. CD14+ monocytes were isolated from PBMCs by positive selection using human monocyte isolation kit. […] Phagocytosis was assessed as % VPD450+ cells of live, single CD14+CD11b+ macrophages by flow cytometry.
# [3] = tested on: human T cell lymphoma cell line H9; assay: macrophage phagocytosis assay on human lymphoma cell line H9; type: cell-based; conditions: H9 cells (CD47-insensitive), 2 h co-culture with macrophages; FIG. 2; vs single agents or no-treatment control
# Method: as §1, §2, §3
Molecule,tumor growth inhibition (TGI) (NCI-H460 NSCLC xenograft; 1 mg/kg) [%],tumor growth inhibition (TGI) (NCI-H460 NSCLC xenograft; 2 mg/kg) [%],tumor growth inhibition (TGI) [1] [%],"percentage phagocytosis (% VPD450+ cells of live, single CD14+CD11b+ macrophages) [2]","percentage phagocytosis (% VPD450+ cells of live, single CD14+CD11b+ macrophages) [3]"
"C#CCC(Cc1cnc2nc(N)nc(N)c2n1)c1ccc(C(=O)N[C@@H](CCC(=O)O)C(=O)O)cc1 (some centres unmarked) [pralatrexate, Pralatrexate]",34,52,38,,
"TTI-621: Fc fusion protein comprising soluble SIRPα (SIRPα-IgG1 Fc), SEQ ID NO: 9; CD47 blocking agent",,,,increased phagocytosis,not present
